The test system of the assay is CD8+ T cells. The assay can be described thus: In vitro immunogenicity of HLA-A*02 peptides (CD8+ T-cell priming with aAPCs, multimer staining). Type of assay: cell-based, human. An excerpt:
In order to obtain information regarding the immunogenicity of the TUMAPs of the present invention, the inventors performed investigations using an in vitro T-cell priming assay based on repeated stimulations of CD8+ T cells with artificial antigen presenting cells (aAPCs) loaded with peptide/MHC complexes and anti-CD28 antibody.
In order to perform in vitro stimulations by artificial antigen presenting cells loaded with peptide-MHC complex (pMHC) and anti-CD28 antibody, the inventors first isolated CD8+ T cells from fresh HLA-A*02 leukapheresis products via positive selection using CD8 microbeads (Miltenyi Biotec, Bergisch-Gladbach, Germany) of healthy donors obtained from the University clinics Mannheim, Germany, after informed consent.
PBMCs and isolated CD8+ lymphocytes were incubated in T-cell medium (TCM) until use consisting of RPMI-Glutamax (Invitrogen, Karlsruhe, Germany) supplemented with 10% heat inactivated human AB serum (PAN-Biotech, Aidenbach, Germany), 100 U/ml Penicillin/100 μg/ml Streptomycin (Cambrex, Cologne, Germany), 1 mM sodium pyruvate (CC Pro, Oberdorla, Germany), 20 μg/ml Gentamycin (Cambrex). 2.5 ng/ml IL-7 (PromoCell, Heidelberg, Germany) and 10 U/ml IL-2 (Novartis Pharma, Nurnberg, Germany) were also added to the TCM at this step.
Generation of pMHC/anti-CD28 coated beads, T-cell stimulations and readout was performed in a highly defined in vitro system using four different pMHC molecules per stimulation condition and 8 different pMHC molecules per readout condition.
The purified co-stimulatory mouse IgG2a anti human CD28 Ab 9.3 (Jung et al., 1987) was chemically biotinylated using Sulfo-N-hydroxysuccinimidobiotin as recommended by the manufacturer (Perbio, Bonn, Germany). Beads used were 5.6 μm diameter streptavidin coated polystyrene particles (Bangs Laboratories, Illinois, USA).
800.000 beads/200 μl were coated in 96-well plates in the presence of 4×12.5 ng different biotin-pMHC, washed and 600 ng biotin anti-CD28 were added subsequently in a volume of 200 μl. Stimulations were initiated in 96-well plates by co-incubating 1×10^6 CD8+ T cells with 2×10^5 washed coated beads in 200 μl TCM supplemented with 5 ng/ml IL-12 (PromoCell) for 3 days at 37° C. Half of the medium was then exchanged by fresh TCM supplemented with 80 U/ml IL-2 and incubating was continued for 4 days at 37° C. This stimulation cycle was performed for a total of three times. For the pMHC multimer readout using 8 different pMHC molecules per condition, a two-dimensional combinatorial coding approach was used as previously described (Andersen et al., 2012) with minor modifications encompassing coupling to 5 different fluorochromes. Finally, multimeric analyses were performed by staining the cells with Live/dead near IR dye (Invitrogen, Karlsruhe, Germany), CD8-FITC antibody clone SK1 (BD, Heidelberg, Germany) and fluorescent pMHC multimers. For analysis, a BD LSRII SORP cytometer equipped with appropriate lasers and filters was used. Peptide specific cells were calculated as percentage of total CD8+ cells. Evaluation of multimeric analysis was done using the FlowJo software (Tree Star, Oregon, USA). In vitro priming of specific multimer+CD8+ lymphocytes was detected by comparing to negative control stimulations.

Consider “DKC-001 (ALFQRPPLI; listed as Homo sapiens)”, for which the “in vitro immunogenicity: donors” value is listed as “++++ (>= 70% = ++++)” and the “in vitro immunogenicity: wells” value is “++ (20%-49% = ++)”.
The like results for “RLDDLKMTV (listed as Homo sapiens) [SEQ ID No. 125]” were, in that order, “++++ (>= 70% = ++++)” and “+ (<20% = +)”.
With “YVYQNNIYL (listed as Homo sapiens) [SEQ ID No. 115]”, the “in vitro immunogenicity: donors” value is on record as “++++ (>= 70% = ++++)” and the “in vitro immunogenicity: wells” value was “+ (<20% = +)”.
Consider BUB1B-001 (KIVDFSYSV), for which the “in vitro immunogenicity: donors” value is reported as “++++ (>= 70% = ++++)” and the “in vitro immunogenicity: wells” value was “++ (20%-49% = ++)”.
The like results for “COL6A3-003 (NLLDLDYEL; listed as Homo sapiens)” were, in that order, “++++ (>= 70% = ++++)” and “+ (<20% = +)”.
With “UBE2S-001 (ALNEEAGRLLL; listed as Homo sapiens)”, the “in vitro immunogenicity: donors” value is “++++ (>= 70% = ++++)” and the “in vitro immunogenicity: wells” value is recorded as “+ (<20% = +)”.
“KIFDEILVNA (listed as Homo sapiens) [SEQ ID No. 144]”: the “in vitro immunogenicity: donors” value was “++ (20%-49% = ++)” and the “in vitro immunogenicity: wells” value is “+ (<20% = +)”.
The like results for “DIO2-001 (ALYDSVILL; listed as Homo sapiens)” were, in that order, “+ (<20% = +)” and “+ (<20% = +)”.
The like results for “ALVQDLAKA (listed as Homo sapiens) [SEQ ID No. 131]” were, in that order, “++++ (>= 70% = ++++)” and “++ (20%-49% = ++)”.
As to “FZD-001 (VLAPLFVYL; listed as Homo sapiens)”, the “in vitro immunogenicity: donors” value is listed as “++++ (>= 70% = ++++)” and the “in vitro immunogenicity: wells” value is reported as “+++ (50%-69% = +++)”.
For “CDK4-001 (TLWYRAPEV; listed as Homo sapiens)” the same measures were “++++ (>= 70% = ++++)” and “++++ (>= 70% = ++++)”.
For “MXRA5-001 (TLSSIKVEV; listed as Homo sapiens)” the same measures were “++++ (>= 70% = ++++)” and “+ (<20% = +)”.
For “MAGEF1-001 (ILFPDIIARA; listed as Homo sapiens)” the same measures were “++++ (>= 70% = ++++)” and “+++ (50%-69% = +++)”.
For the substance “KLDETNNTL (listed as Homo sapiens) [SEQ ID No. 158]”, the “in vitro immunogenicity: donors” value is given as “++ (20%-49% = ++)” and the “in vitro immunogenicity: wells” value is listed as “+ (<20% = +)”.
The like results for “ILLTEQINL (listed as Homo sapiens) [SEQ ID No. 18]” were, in that order, “++ (20%-49% = ++)” and “+ (<20% = +)”.
The like results for “ERO-001 (LLLEILHEI; listed as Homo sapiens)” were, in that order, “+++ (50%-69% = +++)” and “+ (<20% = +)”.
For “IVDDITYNV (listed as Homo sapiens) [SEQ ID No. 119]” the same measures were “++++ (>= 70% = ++++)” and “++ (20%-49% = ++)”.
As to “GBP5-001 (SLLSELQHA; listed as Homo sapiens)”, the “in vitro immunogenicity: donors” value is recorded as “++ (20%-49% = ++)” and the “in vitro immunogenicity: wells” value is listed as “+ (<20% = +)”.
For “PCNXL3-001 (GVLENIFGV; listed as Homo sapiens)” the same measures were “+++ (50%-69% = +++)” and “+ (<20% = +)”.
For GFPT2-001 (AIDGNNHEV) the same measures were “++++ (>= 70% = ++++)” and “+++ (50%-69% = +++)”.
The like results for “KILEDVVGV (listed as Homo sapiens) [SEQ ID No. 130]” were, in that order, “++++ (>= 70% = ++++)” and “++ (20%-49% = ++)”.

(Values after patent publication US10526389B2, “Peptides and combinations of peptides for use in immunotherapy against lung cancer, including NSCLC and other cancers” (Immatics Biotechnologies GmbH, priority 2015, dated 2020).)
